Where a name gives a salt, the structure may show the parent alone. Read-outs that look alike come from different tables or passages of the source. Non-standard residues stand in square brackets, D forms with d. Residues, ends and D or L forms follow the SMILES beside them.
Key:
[1] = tested on: S. aureus (MRSA) ATCC 33591; type: cell-based, Staphylococcus aureus; details: for MRSA (in vitro activity): Table 9
Summary of the method: (§1)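 Overnight bacterial cultures, diluted 4000 times to roughly 2.5×10^5 cfu/ml, are added to 2-fold peptide dilution series. Peptide series span approximately 400-2 μg/ml as prepared in DMSO/aqueous sucrose, before mixing with inoculum. Testing follows NCCLS M7-A4 broth dilution, chiefly the microdilution format.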

[2] = tested on: E. faecium SP180; test: microbe, parasite or virus in culture; type: cell-based, Enterococcus faecium; details: SP180
Method: (§2) The antimicrobial activity of the peptides was determined using a broth dilution assay essentially as descried in the guidelines of the National Committee for […] (NCCLS) [National Committee for Clinical Laboratory Standards. Methods for dilution antimicrobial susceptibility tests for bacteria that grow aerobically. Fourth edition. Approved Standard (1997). Document M7-A4. […] The microdilution method has the advantages of requiring less amount of peptide for each assay and the possibility of multiple simultaneous inoculations and was used in most studies. Several of the strains of bacteria tested are further described in Table 3.
(§3) Preparation of peptide solutions. Stock peptide solutions were prepared in 5% DMSO in aq. sucrose (9%). Determination of peptide concentrations was done by quantitative HPLC analysis using known concentrations of internal standards and/or by measuring UV absorption of tryptophane-containing peptide solutions in H2O (λ=280 εTrp: 5690). Serial 2-fold dilutions were made in the above DMSO/aq. sucrose (9%) mixture with concentrations ranging approximately 400-2 μg/ml and aliquots were dispensed in test tubes (100 μl) for the macrodilution test or in microtiter plates (20 μl) for the microdilution assays.
(§4) Inoculum preparation. Overnight cultures of different microorganisms grown in suitable media were diluted 4000 times to an approximate inoculum size of 2.5×10^5 cfu/ml.
(§5) Macrodilution method. Macrodilution methods were performed using procedures similar to those described in the National Committee for Clinical Laboratory Standards. Methods for dilution antimicrobial susceptibility tests for bacteria that grow aerobically. Fourth edition. Approved Standard (1997). Document M7-A4. (NCCLS,Villanova, Pa., 1997). Two ml aliquots of the above inoculum were dispensed to test tubes containing different peptide solutions.
(§6) Microdilution method. Microdilution methods were performed using procedures similar to those described in the National Committee for Clinical Laboratory Standards. Methods for dilution antimicrobial susceptibility tests for bacteria that grow aerobically. Fourth edition. Approved Standard (1997). Document M7-A4.

[3] = tested on: E. faecalis ATCC 51299; test: microbe, parasite or virus in culture; type: cell-based, Enterococcus faecalis; details: ATCC 51299
Method: as §2, §3, §4, §5, §6

[4] = tested on: vancomycin-resistant Enterococus faecalis (VRE)(ATCC 51575); type: cell-based, Enterococcus faecalis; design: key to VRE (in vitro activity): peptide concentration in μg/ml (broth dilution assay); details: for VRE (in vitro activity): Table 9
Summary of the method: as §1

[5] = tested on: S. aureus ATCC 33592; test: microbe, parasite or virus in culture; type: cell-based, Staphylococcus aureus; details: ATCC 33592
Method: as §2, §3, §4, §5, §6

[6] = tested on: H. influenzae ATCC 49247; test: microbe, parasite or virus in culture; type: cell-based, Hemophilus influenzae; details: ATCC 49247
Method: as §2, §3, §4, §5, §6

[7] = tested on: murine red blood cells; test: Red blood cell hemolysis; type: cell-based, mouse
Summary of the method: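 Washed murine erythrocytes at 5% in saline with 10% FBS were exposed to serial peptide dilutions for 30 min at 37° C. Supernatant absorbance at 560 nm was read, with saline as 0% and 1% Triton X-100 as 100% hemolysis.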

[8] = tested on: E. coli (K12); test: microbe, parasite or virus in culture; type: cell-based, Escherichia coli; details: K12
Method: as §2, §3, §4, §5, §6

[9] = tested on: E. coli (EL744) K12 (tolC::kan); test: microbe, parasite or virus in culture; type: cell-based, Escherichia coli; details: MHII broth
Method: as §2, §3, §4, §5, §6

[10] = tested on: Streptococcus pneumoniae (ATCC 6301); type: cell-based
Summary of the method: as §1

[11] = tested on: Bacillus cereus ATCC 11778; type: cell-based
Summary of the method: as §1

[12] = tested on: vancomycin resistant E. faecium (VREF)(ATCC 51575); test: Mouse peritonitis model, VREF protection; type: in vivo, mice; design: PD50 VREF: unit not given here
Method: Vancomycin resistant Enterococcus faecium (VREF) bacteria (ATCC 51575) were grown at 37° C. in 60 mL of Brain Heart Infusion medium (BHI, Difco Laboratories) with agitation for 16 hours to a stationary phase. Cells were collected by centrifugation, washed twice with saline solution and resuspended in 6 mL of saline to a theoretical O.D.650 of 9-10 (determined by taking OD.650 of 10-20 fold diluted samples and correlating it to the original concentration). This suspension was diluted 15 times in a sterilized 5% mucin (Difco) in saline to a concentration of 5-7×10^8 cfu/ml (actual inoculum size was verified by colony counts on agar plates).
(§7) Peptides of the invention were tested in mice to ascertain whether they would protect the mice against bacterial infection using procedures similar to those described in N. Frimodt-Moller et al., The Mouse Peritonitis/Sepsis Model, in Zak et al. (eds.) HANDBOOK OF ANIMAL MODELS OF INFECTION 127-37 (Academic Press 1999).
(§8) Male Balb-C mice (6 weeks old, approximately 20 g) were used in the study. Staphylococcus aureus MRSA bacteria (ATCC 33591) were grown at 37° C. with agitation for 12 hours to a stationary phase. Cells were collected by centrifugation, washed twice with saline and resuspended to an O.D.650 of 1.4. This suspension was diluted ten times with saline and resuspended to a concentration of 3-5×10^7 cfu/ml. For each peptide five groups of eight mice per group were infected I.P. with 0.5 ml of the above Staphylococcus aureus MRSA preparation (lethal dose). Forty-five minutes to an hour after infection, each group was treated with a different dose of peptide and a control group received vehicle only. Mice were monitored for fourteen days; death was defined as the end point. Median protecting doses (PD50) were calculated following the Reed and Muench method. […] For IV and SQ models peptide was administered immediately after IP infection.

[13] = tested on: S. aureus MRSA (ATCC 33591); test: Mouse peritonitis model, MRSA protection; type: in vivo, mice; design: PD50 MRSA: unit not given here
Method: Bacteria were prepared for in vivo using procedures similar to those as previously described. […] S. aureus MRSA bacteria (ATCC 33591) were grown at 37° C. in 5 mL of Antibiotic Medium-3 (AM-3, Difco Laboratories) with agitation for 12 hours to a stationary phase. Cells were collected by centrifugation, washed twice with saline solution and resuspended in about 10 mL of saline to an O.D.650 of 1.2. This suspension was diluted ten times in a sterilized 5% mucin (Difco) in saline to a concentration of 2-4×10^7 cfu/ml (actual inoculum size was verified by colony counts on agar plates).
as §7, §8

[14] = Single channel conductance in planar lipid membranes; details: for rate of channel mediated K+ transport / observed conductance: 500 mM KCl; for observed conductance: peptide about 30 mM in the subphase; for transport speed relative to gramicidin A: similar conditions
Method: The ion transport properties of tetrapeptides cyclo[(β-Trp)4] and cyclo[(β-Trp-β-Leu)2], synthesized via established protocols, were studied in liposome-based assays and by single channel conductance measurements in planar lipid membranes. The observed conductance in 500 mM KCl with peptide concentrations of about […] in the subphase is 56 pS, corresponding to the rates of channel mediated K^+ transport of 1.9×10^7 ions s^−1 for both tetrapeptides.

[15] = media b: cation adjusted Meuller Hinton broth (MHBII)
[16] = media c: Brain Heart Infusion (BHI)
[17] = Table 12, male Balb-C mice, IP infection, IP peptide
[18] = single bolus IP dose of appropriate amount, 45-60 min after infection

CC(C)C[C@H]1NC(=O)[C@H](Cc2c[nH]c3ccccc23)NC(=O)[C@@H](CCCCN)NC(=O)[C@H](CO)NC(=O)[C@@H](CCCCN)NC(=O)[C@H](Cc2c[nH]c3ccccc23)NC(=O)[C@@H](CC(C)C)NC(=O)[C@H](Cc2c[nH]c3ccccc23)NC1=O [[KSKWLWLW]-HCl, D-Lys-Ser-D-Lys-Trp-D-Leu-Trp-D-Leu-Trp] (cyclo([dK]S[dK]W[dL]W[dL]W))
MRSA (in vitro activity) [1, 15]: 9 | E. faecium SP180 MIC [2]: 4 µg/mL | E. faecalis ATCC 51299 MIC [3]: 8 µg/mL | VRE (in vitro activity) [4, 16]: 9 | S. aureus ATCC 33592 MIC [5]: 4 µg/mL | H. influenzae ATCC 49247 MIC [6]: 32 µg/mL | RBC Hemolysis (HD50) [7]: 60

CC(C)C[C@H]1NC(=O)[C@H](Cc2c[nH]c3ccccc23)NC(=O)[C@@H](CCCCN)NC(=O)[C@H](CCCNC(=N)N)NC(=O)[C@@H](CCCNC(=N)N)NC(=O)[C@H](Cc2c[nH]c3ccccc23)NC(=O)[C@@H](CC(C)C)NC(=O)[C@H](Cc2c[nH]c3ccccc23)NC1=O [[RRKWLWLW]-HCl, cyclo-(D-Arg-Arg-D-Lys-Trp-D-Leu-Trp-D-Leu-Trp)] (cyclo([dR]R[dK]W[dL]W[dL]W))
MRSA (in vitro activity) [1, 15]: 9 | E. faecium SP180 MIC [2]: 4 µg/mL | E. faecalis ATCC 51299 MIC [3]: 8 to 16 µg/mL | VRE (in vitro activity) [4, 16]: 9 | E. coli (K12) MIC [8]: 32 µg/mL | S. aureus ATCC 33592 MIC [5]: 8 µg/mL | H. influenzae ATCC 49247 MIC [6]: 32 to 64 µg/mL | RBC Hemolysis (HD50) [7]: 70

CC(C)C[C@H]1NC(=O)[C@H](CCCCN)NC(=O)[C@@H](CCCCN)NC(=O)[C@H](Cc2c[nH]c3ccccc23)NC(=O)[C@@H](CC(C)C)NC(=O)[C@H](Cc2c[nH]c3ccccc23)NC1=O [[KKLWLW]-HCl, cyclo-(D-Lys-Lys-D-Leu-Trp-D-Leu-Trp)] (cyclo(K[dL]W[dL]W[dK]))
E. faecium SP180 MIC [2]: 16 µg/mL | E. faecalis ATCC 51299 MIC [3]: >128 µg/mL | E. coli (K12) MIC [8]: >128 µg/mL | E. coli (EL744) K12 (tolC::kan) MIC [9]: 32 µg/mL | S. aureus ATCC 33592 MIC [5]: 32 µg/mL | H. influenzae ATCC 49247 MIC [6]: >128 µg/mL

CC(C)C[C@H]1NC(=O)[C@H](Cc2c[nH]c3ccccc23)NC(=O)[C@@H](CCCCN)NC(=O)[C@H](CCCCN)NC(=O)[C@@H](CCCCN)NC(=O)[C@H](Cc2c[nH]c3ccccc23)NC(=O)[C@@H](CC(C)C)NC(=O)[C@H](Cc2c[nH]c3ccccc23)NC1=O [SEQ ID NO:17, cyclo[-(D-Lys-Lys-D-Lys-(Trp-D-Leu)2-Trp-]] (cyclo([dK]K[dK]W[dL]W[dL]W))
S. pneum. MIC [10]: 10 µg/mL | B. cerius MIC [11]: 5 µg/mL | MRSA MIC ([1]; ATCC 33591): 10 µg/mL | S. aureus (MRSA) MIC ([1]; ATCC 33591): 8 µg/mL | MRSA (in vitro activity) ([1]; media a: anti-microbial media-3 (AM-3)): 10 | PD50 E. faecium VREF infection [12]: 13 mg/kg | PD50 VREF [12, 17]: 13 | protection of mice from VREF infection [12, 18]: completely protect | PD50 S. aureus MRSA infection [13]: 7 mg/kg | PD50 protective dose where 50% of animals survive ([13]; FIG. 6, mice challenged with lethal doses of MRSA): 6 ± 2 mg/kg | PD50 MRSA [13, 17]: 7 | protection of mice from MRSA infection [13, 18]: completely protect | VRE MIC ([4]; ATCC 51575): 40 µg/mL | VRE (in vitro activity) ([4]; media a: AM-3): 40 | RBC Hemolysis (HD50) [7]: 45

cyclo[(β-Trp)4]
rate of channel mediated K+ transport [14]: 1.9×10^7 ions s^−1 | observed conductance [14]: 56 pS | transport speed relative to gramicidin A [14]: more than twice

CC(C)C[C@H]1NC(=O)[C@H](CCCNC(=N)N)NC(=O)[C@@H](CCCNC(=N)N)NC(=O)[C@H](Cc2c[nH]c3ccccc23)NC(=O)[C@@H](CC(C)C)NC(=O)[C@H](Cc2c[nH]c3ccccc23)NC1=O [[RRLWLW]-HCl, cyclo-(D-Arg-Arg-D-Leu-Trp-D-Leu-Trp)] (cyclo(R[dL]W[dL]W[dR]))
E. faecium SP180 MIC [2]: 8 to 16 µg/mL | E. faecalis ATCC 51299 MIC [3]: 32 to 64 µg/mL | E. coli (K12) MIC [8]: 16 µg/mL | E. coli (EL744) K12 (tolC::kan) MIC [9]: 8 µg/mL | S. aureus ATCC 33592 MIC [5]: 32 µg/mL | H. influenzae ATCC 49247 MIC [6]: 8 to 16 µg/mL

cyclo[(β-Trp-β-Leu)2]
rate of channel mediated K+ transport [14]: 1.9×10^7 ions s^−1 | observed conductance [14]: 56 pS | transport speed relative to gramicidin A [14]: more than twice

— patent publication US20050107289A1, “Anti-microbial peptides and compositions” (priority 2001, published 2005)
